Measurements taken from patent US20110189310A1, “SMALL MOLECULE MODULATORS OF PRONGF UPTAKE” (priority 2008, published 2011).
Where two headings read alike, the source gives them in different places.

Experiments:
Cultured rat SCG neurons = conditions: for effect on proNGF induced neuronal apoptosis (FIG. 1): 10 μM compound, 5 ng/ml proNGF, rat SCG neurons 7 DIV
Protocol: (§1) (A) Neuronal apoptosis was assessed morphologically by DAPI and TuJ1 double staining and (B) quantitated as percentage of SCG neuron apoptosis. […] Error bars represent S.E.M.
as §1, with “A recent collaborative study assessed the expression and biological actions of proNGF following seizure induced injury to central neurons. […] (A)” for “(A)”

[1] = cited from earlier work
[2] = human, in vivo; cited from earlier work
dopaminergic neurons = conditions: one report; cited from earlier work
[3] = rat, in vivo, sc, 100 mg/kg
[4] = human, in vivo, cited from earlier work
[5] = mouse, in vivo; cited from earlier work
[6] = in vivo; cited from earlier work
[7] = monkey, in vivo; cited from earlier work

## N[C@@H](Cc1ccc(O)c(O)c1)C(=O)O [Levodopa]
Cultured rat SCG neurons
  effect on proNGF induced neuronal apoptosis (FIG. 1): blockade of proNGF induced neuronal apoptosis
Cultured rat SCG neurons; proNGF-induced SCG neuronal cell death
  inhibition of apoptosis, dose dependence: dose dependent inhibition of apoptosis
[1]; human
  toxicity profile in human: excellent toxicity profiles in human
[2]
  CSF level of major metabolite homovanillic acid: 0.8 to 1 µM
Dopaminergic neurons
  L-dopa concentrations required for toxicity to dopaminergic neurons: 100 to 500 µM

## CC[C@H](C)C(=O)O[C@H]1C[C@@H](C)C=C2C=C[C@H](C)[C@H](CC[C@@H]3C[C@@H](O)CC(=O)O3)[C@H]21 [Lovastatin]
Cultured rat SCG neurons
  inhibition of apoptosis, dose dependence: dose dependent inhibition of apoptosis
  toxicity in SCG neuron assay: without toxicity
[1]; in vivo
  toxicity profile in human: excellent toxicity profiles in human

## O=C([O-])CC(O)(CC(=O)[O-])C(=O)[O-].[Li+].[Li+].[Li+] [Lithium Citrate]
Cultured rat SCG neurons
  inhibition of apoptosis, dose dependence: dose dependent inhibition of apoptosis
  effect on proNGF induced neuronal apoptosis (FIG. 1): blockade of proNGF induced neuronal apoptosis
[1]; in vivo
  toxicity profile in human: excellent toxicity profiles in human

## O=C([O-])[O-].[Li+].[Li+] [Lithium carbonate]
Cultured rat SCG neurons
  concentration at which efficacy is demonstrated: 10 µM
[3]
  peak serum concentration: 3 mM
  trough serum concentration: 300 µM
[4]; po
  serum concentration: 0.6 to 0.8 mmol
[4]
  major toxicities: reversible renal impairment and anemia
[5]
  clinical toxicity: no clinical toxicity
[6]
  brain concentration relative to serum concentration: approximately half
[7]
  brain concentration relative to serum concentration: approximately half
